Data on four compounds can be found in ChEMBL document CHEMBL1201862, “PubChem BioAssay data set” (2004).

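These data come from cells grown in 96-well plates and exposed to compound for 48 hours at five concentrations. GI50 = concentration required for 50% inhibition of growth.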 The source made the active and inactive calls. No stated cut-off is given here; in the data, active = GI50 up to about 1.1 µM and inactive = higher.

Test systems include Hs-578T; SR; K562; MDA-MB-435; OVCAR-8; A549; A498; NCI-H460; SN12C; ACHN; MCF7; EKVX; SK-OV-3; NCI-H226; DU-145; T47D; PC-3; SF-539; 786-0; LOX IMVI.
What all share (test): DTP human tumour cell line panel, 48 h

By GI50 is commonly meant the concentration that inhibits growth by half.

For the compound `O=C(Nc1ccccc1C(=O)Nc1nccs1)c1ccccc1`, the GI50 with Hs-578T was 23.9 µM (inactive); with SR it was 7.31 µM (inactive); in the assay on K562 it was 11.2 µM (inactive); in the assay on MDA-MB-435 it was 33.7 µM (inactive); with OVCAR-8, 54.5 µM (inactive); in the assay with A549 it was 12.4 µM (inactive). Further, the GI50 with A498 is 8.51 µM (inactive); in the assay with NCI-H460 it was 3.81 µM (inactive); in the assay with SN12C it was 59 µM (inactive); in the assay on ACHN, 14.3 µM (inactive); in the assay with MCF7, 12.8 µM (inactive); with EKVX, 36.6 µM (inactive). Moreover, the GI50 is 23.2 µM (inactive) with SK-OV-3; 32.5 µM (inactive) in the assay on NCI-H226; 13.6 µM (inactive) in the assay with DU-145; 2.84 µM (inactive) in the assay with T47D; 2.45 µM (inactive) with PC-3; 43 µM (inactive) in the assay on SF-539. In addition, the results for the GI50 with 786-0 and with LOX IMVI were 16.4 µM (inactive) and 4.83 µM (inactive), respectively.

Consider `Cc1cc(/N=C/c2ccc(F)cc2)n(-c2ccccc2)n1`, for which the GI50 was > 100 µM (inactive) in the assay with Hs-578T; 35.4 µM (inactive) in the assay with SR; 59.3 µM (inactive) in the assay with K562; 74.1 µM (inactive) in the assay on MDA-MB-435; > 100 µM (inactive) with OVCAR-8; 92 µM (inactive) in the assay with A549. Further, the GI50 with A498 is 42.3 µM (inactive); in the assay on NCI-H460, 41.5 µM (inactive); in the assay on SN12C it was 57.3 µM (inactive); in the assay with ACHN, > 100 µM (inactive); in the assay on MCF7, 46.7 µM (inactive); with EKVX, 66.7 µM (inactive). For the same compound, the GI50 was > 100 µM (inactive) in the assay on SK-OV-3; > 100 µM (inactive) in the assay with NCI-H226; > 100 µM (inactive) in the assay on DU-145; 27.2 µM (inactive) in the assay with T47D; > 100 µM (inactive) in the assay with PC-3; > 100 µM (inactive) in the assay with SF-539. The GI50 in the assay with 786-0 and with LOX IMVI was > 100 µM (inactive) throughout.

Turning to `COc1cc2nc3n(c(=O)c2cc1OC)CCCCC3`, the GI50 in the assay on Hs-578T, in the assay on SR, with K562, in the assay on MDA-MB-435, in the assay on OVCAR-8 and in the assay on A549 was > 100 µM (inactive) throughout. The GI50 with A498, with NCI-H460, in the assay with SN12C, with ACHN, in the assay with MCF7 and with EKVX was > 100 µM (inactive) in each case. The GI50 in the assay with SK-OV-3 is > 100 µM (inactive); in the assay on NCI-H226 it was > 100 µM (inactive); in the assay with DU-145, > 100 µM (inactive); in the assay with T47D it was > 100 µM (inactive); in the assay with PC-3, > 100 µM (inactive); in the assay with SF-539, > 10 µM (inactive). Besides, the GI50 in the assay with 786-0 and with LOX IMVI was > 100 µM (inactive) in each case.

Turning to `C=C1C(=O)C23CC1CCC2C12CO[C@@]3(O)[C@@H](O)C1C(C)(C)C=CC2=O` (stereo not given in full), the GI50 in the assay on Hs-578T was 31.6 µM (inactive); in the assay with SR it was 0.186 µM (active); with K562 it was 1.53 µM (inactive); with MDA-MB-435 it was 3.78 µM (inactive); with OVCAR-8 it was 0.16 µM (active); with A549 it was 2.03 µM (inactive). The GI50 in the assay on A498 is > 10 µM (inactive); with NCI-H460, 0.713 µM (active); in the assay on SN12C, 1.15 µM (inactive); in the assay with ACHN it was 0.774 µM (active); in the assay on MCF7, 2.44 µM (inactive); in the assay on EKVX, 5.26 µM (inactive). Further, the GI50 in the assay with SK-OV-3 is 7.53 µM (inactive); in the assay on NCI-H226, 6.44 µM (inactive); in the assay on DU-145 it was 23.4 µM (inactive); with T47D it was 5.38 µM (inactive); in the assay with PC-3, 2.74 µM (inactive); in the assay on SF-539, 0.861 µM (active). Further, the figures for the concentration for 50% growth inhibition (GI50) with 786-0 and in the assay with LOX IMVI were 0.653 µM (active) and 3.63 µM (inactive), respectively.
